Measured values from PMC3154276, “The Effect of the Potential PhoQ Histidine Kinase Inhibitors on Shigella flexneri Virulence” (PLoS ONE, 2011).

Test: Cytotoxicity MTT assay on Vero cells
Assay type: cell-based
Settings: African green monkey, highest concentration tested 200 µmol/L, read-out: CC50 on Vero cell
Procedure: The cytotoxicity of each potential PhoQ inhibitor towards a Vero cell line was analyzed by the traditional MTT assay. The CC50 values of all four compounds were higher than 200 µmol/L, the highest tested concentration of potential PhoQ inhibitors. As a control, an equal concentration of DMSO (0.1%) was added to a well of Vero cells, and no obvious cytotoxicity was observed (Table 1).
Cytotoxicity of the potential PhoQ inhibitors on cultured Vero cells was measured by using the Cell Proliferation Kit I (MTT) (Roche, Indianapolis, USA). An equal concentration of DMSO (0.1%) in the medium was used as a negative control. The cytotoxicity assay was performed in triplicate for each potential PhoQ inhibitor, and the assay for each potential PhoQ inhibitor was repeated twice. The results were converted to percentage of the control (cells only containing 0.1% DMSO) and CC50 (concentrations that produce a 50% cytotoxicity effect on Vero cell) of each potential PhoQ inhibitors was calculated using the Origin v7.0 software (OriginLab, Northampton, USA).

| Compound | CC50 |
| --- | --- |
| O=C(Nc1ccc(C2(c3cccc(NC(=O)c4cccc5ccccc45)c3)c3ccccc3C(=O)c3ccccc32)cc1)c1ccc2ccccc2c1 [Compound 1] | > 200 µM |
| CCOc1ccccc1-c1cc(C(=O)N/N=C/c2ccc(OCc3ccccc3)c(OC)c2)c2ccccc2n1 [Compound 2] | > 200 µM |
| O=C(O)c1ccc(Cl)c(-c2ccc(/C=N/NC(=O)c3ccc(Br)cc3)o2)c1 [Compound 3] | > 200 µM |
| O=C(O)c1cc(-c2ccc(-c3ccccc3Cl)o2)nc2ccc3ccccc3c12 [Compound 4] | > 200 µM |
